Experimental findings from patent publication US9718790B2, “Triazine derivative and pharmaceutical composition having an analgesic activity comprising the same” (SHIONOGI & CO., LTD., priority 2010, dated 2017) are described below.

In one experiment the target is human P2X3 receptor (Homo sapiens (Human), UniProt P56373). In words: Evaluation of human P2X3 receptor inhibitory activity (Fluo-3 calcium fluorescence, FDSS 3000, ATP stimulation).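 Also: stimulus was 50 nM ATP with fluorescence followed for 3 min, and the response per well was peak post-ATP fluorescence divided by the reading at measurement start.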 Format: cell-based. As to conditions: C6BU-1 cells stably expressing human P2X3 receptor.
Sequence of human P2X3 receptor (P56373 whole entry): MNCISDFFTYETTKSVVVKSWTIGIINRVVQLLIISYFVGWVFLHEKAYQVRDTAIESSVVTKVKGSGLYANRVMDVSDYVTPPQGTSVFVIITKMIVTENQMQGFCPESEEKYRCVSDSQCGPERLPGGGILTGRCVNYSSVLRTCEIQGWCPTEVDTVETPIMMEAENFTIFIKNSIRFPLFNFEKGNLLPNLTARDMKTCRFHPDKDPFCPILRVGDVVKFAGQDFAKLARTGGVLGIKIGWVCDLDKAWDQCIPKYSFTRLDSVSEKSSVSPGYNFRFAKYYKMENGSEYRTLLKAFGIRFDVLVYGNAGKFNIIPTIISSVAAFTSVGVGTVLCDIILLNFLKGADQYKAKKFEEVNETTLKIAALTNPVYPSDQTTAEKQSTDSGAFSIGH
With `O=c1ccccn1-c1ccc(/N=c2\[nH]c(=O)n(CCOC3CCCCO3)c(=O)n2Cc2ccc(Cl)cc2)cc1` (stereo not shown) [Compound I-2040], the IC50 worked out at 23 nM.
With `O=C(O)c1cc(Oc2ccc(/N=c3\[nH]c(=O)n(CCO)c(=O)n3Cc3ccc(Cl)cc3)cc2)no1` [Compound I-2117], the IC50 was 23 nM.
Consider `CCn1c(=O)[nH]/c(=N\c2ccc(Oc3cccc(C(=O)O)n3)cc2)n(Cc2ccc(Cl)cc2)c1=O` [Compound I-2095], for which the IC50 came out at 5 nM.
Still for that read-out and setting: with `Cc1[nH]c2ccc(/N=c3\[nH]c(=O)n(CC(CO)CO)c(=O)n3Cc3ccc(Cl)cc3)cc2c1C` [Compound I-1935] the figure was 9 nM; with `Cc1cc2cc(/N=c3\[nH]c(=O)n(CC4COC(C)(C)OC4)c(=O)n3Cc3ccc(Cl)cc3)ccc2o1` [Compound I-2069], 7 nM; with `COCc1ccc(/N=c2\[nH]c(=O)n(C[C@H](C)C(=O)O)c(=O)n2Cc2ccc(Cl)cc2)cc1` [Compound I-0686], 605 nM.
On the same count and under the same terms, with `Cc1cc(/N=c2\[nH]c(=O)n(CC[C@H](N)C(=O)O)c(=O)n2Cc2ccc(Cl)cc2)ccc1OC(C)C` [Compound I-0736, (S)-1-(4-chlorobenzyl)-3-(3-amino-3-hydroxycarbonylpropyl)-6-(3-mehyl-4-isopropoxyphenylimino)-1,3,5-triazinane-2,4-dion] the figure was 131 nM.
Still for that read-out and setting: with `Cc1ccc(Cn2c(=O)n(C[C@H](C)C(=O)O)c(=O)[nH]/c2=N\c2ccc(OC3CCCCC3)nc2)cc1` [Compound I-1188] the figure was 131 nM; with `CCn1c(=O)[nH]/c(=N\c2ccc(Oc3ccnc(C(=O)O)c3)cc2)n(CC2CCC3(CC2)CC3)c1=O` [Compound I-2177], 14 nM; with `CCOc1cc(F)c(/N=c2\[nH]c(=O)n(CCC(=O)O)c(=O)n2Cc2ccc(C)cc2)c(F)c1` [Compound I-2053], 952 nM.
Turning to `NC(=O)CCn1c(=O)[nH]/c(=N\c2ccc(OCC3CC3)cc2)n(Cc2ccc(Cl)cc2)c1=O` [Compound I-1914], the IC50 came out at 46 nM.
Still for that read-out and setting: under `COC(=O)[C@@H](C)Cn1c(=O)[nH]/c(=N\c2ccc3oc(C)cc3c2)n(Cc2ccc(C)cc2)c1=O` [Compound I-0671] stands 15 nM.
For the compound `CCn1c(=O)[nH]/c(=N\c2ccc(Oc3ccc(F)c(C(=O)O)c3)cc2)n(Cc2ccc(Cl)cc2)c1=O` [Compound I-2066], the concentration for half-maximal inhibition (IC50) was determined as 23 nM.
Consider `CCn1c(=O)[nH]/c(=N\c2ccc(Oc3ccc(S(N)(=O)=O)cc3)cc2)n(Cc2ccc(Cl)cc2)c1=O` [Compound I-1993], for which the IC50 was 6 nM.
On the same count and under the same terms, with `Cc1ccc(Cn2c(=O)n(CCC(=O)O)c(=O)[nH]/c2=N\c2ccc(OC(C)C)c(C3CC3)c2)cc1` [Compound I-1303] the figure was 66 nM.
The same measure, in the same setting: under `COC(=O)[C@H](C)[C@H](C)n1c(=O)[nH]/c(=N\c2ccc(CC(C)C)c(OC)c2)n(Cc2ccc(C)cc2)c1=O` [Compound I-1364] stands 43 nM; under `CCOc1ccc(/N=c2\[nH]c(=O)n(C[C@H](C)C(=O)O)c(=O)n2Cc2ccc(C)cc2)cc1F` [Compound I-0610], 35 nM; under `C[C@@H](Cn1c(=O)[nH]/c(=N\c2ccc(OC(F)F)c(F)c2)n(Cc2ccc(Cl)cc2)c1=O)C(=O)O` [Compound I-0658], 109 nM.
Same read-out and setting: with `CC(C)Oc1ccc(/N=c2\[nH]c(=O)n(CC(=O)OCC3CCOCC3)c(=O)n2Cc2ccc(Cl)cc2)cc1Cl` [Compound I-0667] the figure was 20 nM.

The same experiment, now with this note: C6BU-1 cells stably expressing human P2X3 receptor, Fluo-3 fluorescence, FDSS 3000.
Take `Cc1cc(/N=c2\[nH]c(=O)n(C3CN(C(=O)OC(C)(C)C)C3)c(=O)n2Cc2ccc(Cl)cc2)ccc1OC(C)C` [Compound I-1641]: the IC50 was determined as 20 nM.
On the same count and under the same terms, with `COC(=O)[C@H](C)[C@H](C)n1c(=O)[nH]/c(=N\c2ccc(OC(C)C)c(Cl)c2)n(Cc2ccc(Cl)cc2)c1=O` [Compound I-0917] the figure was 19 nM.
Still for that read-out and setting: under `Cc1ccc(Cn2c(=O)n(C[C@H](C)C(=O)O)c(=O)[nH]/c2=N\c2ccc(OCC(C)(C)C)cc2)cc1` [Compound I-1064] stands 257 nM.
Same read-out and setting: with `O=C(O)CCn1c(=O)[nH]/c(=N\c2ccc(Oc3ccc(F)cc3)cc2)n(Cc2ccc(Cl)cc2)c1=O` [Compound I-1877] the figure was 36 nM; with `CCc1oc2ccc(/N=c3\[nH]c(=O)n(CC(C)(C)C(=O)O)c(=O)n3Cc3ccc(C)cc3)cc2c1C` [Compound I-1582], 7 nM; with `COC(=O)[C@@H](C)Cn1c(=O)[nH]/c(=N\c2ccc(Oc3ccncc3)cc2)n(Cc2ccc(C)cc2)c1=O` [Compound I-1125], 4 nM.
In the case of `Cc1ccc(Cn2c(=O)n(CCC(=O)NS(C)(=O)=O)c(=O)[nH]/c2=N\c2ccc(OC(C)C)c(Cl)c2)cc1` [Compound I-1874], the half-maximal inhibitory concentration (IC50) came to 13 nM.
The same measure, in the same setting: under `CCc1oc2ccc(/N=c3\[nH]c(=O)n(CCCC(=O)O)c(=O)n3Cc3ccc(Cl)cc3)cc2c1C` [Compound I-1704] stands 15 nM; under `CC1(C)OCC(Cn2c(=O)[nH]/c(=N\c3ccc(OCC4CC4)cc3)n(Cc3ccc(Cl)cc3)c2=O)CO1` [Compound I-1841], 6 nM; under `Cc1nc2ccc(/N=c3\[nH]c(=O)n(CC(N)=O)c(=O)n3Cc3ccc(Cl)cc3)cc2s1` [Compound I-1659], 6 nM.
The same measure, in the same setting: with `CCc1nc2ccc(/N=c3\[nH]c(=O)n(CC(=O)NC)c(=O)n3Cc3ccc(Cl)cc3)cc2s1` [Compound I-1807] the figure was 6 nM; with `COC(=O)[C@@H](C)Cn1c(=O)[nH]/c(=N\c2ccc(C3CCCC3)cc2)n(Cc2ccc(C)cc2)c1=O` [Compound I-1090], 135 nM.
Turning to `CCc1nc2ccc(/N=c3\[nH]c(=O)n(C[C@H](C)NC(C)=O)c(=O)n3Cc3ccc(Cl)cc3)cc2s1` [Compound I-1665], the half-maximal inhibitory concentration (IC50) stood at 7 nM.
The same measure, in the same setting: under `COC(=O)[C@@H](C)Cn1c(=O)[nH]/c(=N\c2ccc(CCC3CC3)c(C)c2)n(Cc2ccc(Cl)cc2)c1=O` [Compound I-1023] stands 300 nM.
Same read-out and setting: under `CC[C@H](C)Oc1ccc(/N=c2\[nH]c(=O)n(C[C@H](C)C(=O)OC)c(=O)n2Cc2ccc(C)cc2)cc1Cl` [Compound I-1016] stands 17 nM.
Still for that read-out and setting: under `Cc1ccc(Cn2c(=O)n(C[C@H](C)C(=O)O)c(=O)[nH]/c2=N\c2ccc(Oc3cccnc3)cc2)cc1` [Compound I-1123] stands 14 nM; under `CCOC(=O)CCCn1c(=O)[nH]/c(=N\c2ccc3oc(CC)c(C)c3c2)n(Cc2ccc(C)cc2)c1=O` [Compound I-1627], 9 nM.
In the case of `COC(=O)[C@@H](C)Cn1c(=O)[nH]/c(=N\c2cccc(SC)c2)n(Cc2ccc(C)cc2)c1=O` [Compound I-1153], the concentration for half-maximal inhibition (IC50) came to 71 nM.
For `CSc1cccc(/N=c2\[nH]c(=O)n(C[C@H](C)C(=O)O)c(=O)n2Cc2ccc(C)cc2)c1` [Compound I-1154], the IC50 is 131 nM.
Consider `CCCCCOc1ccc(/N=c2\[nH]c(=O)n(C[C@H](C)C(=O)O)c(=O)n2Cc2ccc(C)cc2)cc1` [Compound I-1065], for which the IC50 is 85 nM.
On the same count and under the same terms, under `COC(=O)[C@@H](C)Cn1c(=O)[nH]/c(=N\c2ccc(OCC(C)(C)C)cc2)n(Cc2ccc(C)cc2)c1=O` [Compound I-1050] stands 389 nM.

The same experiment, now with this note: human P2X3 receptor, Test Example 1.
For the compound `CNC(=O)c1cc(Oc2ccc(/N=c3\[nH]c(=O)n(C)c(=O)n3Cc3ccc(Cl)cc3)cc2F)ccn1` [Compound I-2433], the IC50 came to 5 nM.
Still for that read-out and setting: under `CNC(=O)[C@@H](C)n1c(=O)[nH]/c(=N\c2ccc(Oc3ccon3)cc2)n(Cc2ccc(Cl)cc2)c1=O` [Compound I-2534] stands 105 nM; under `CCn1c(=O)[nH]/c(=N\c2ccc(Oc3cccc(C(N)=O)n3)cc2)n(C[C@H]2CC[C@H](C)CC2)c1=O` [Compound I-2497], 1 nM.
On the same count and under the same terms, under `Cc1cc(/N=c2\[nH]c(=O)n(C[C@H](C)C(=O)O)c(=O)n2Cc2ccc(Br)cc2)ccc1OC(C)C` [Compound I-0868] stands 23 nM.
Still for that read-out and setting: with `Cn1c(=O)[nH]/c(=N\c2ccc(Oc3ccc(C(N)=O)nc3)cc2)n(Cc2ccc(Cl)cc2)c1=O` [Compound I-2406] the figure was 10 nM; with `CCOC(=O)C1(Cn2c(=O)[nH]/c(=N\c3ccc4nc(C)sc4c3)n(Cc3ccc(C)cc3)c2=O)CC1` [Compound I-1545], 3 nM; with `CCn1c(=O)[nH]/c(=N\c2ccc(Oc3cncc(C(=O)O)n3)cc2)n(Cc2ccc(Cl)cc2)c1=O` [Compound I-2282], below 4 nM.
As for `Cc1ccc(Cn2c(=O)n(C[C@H](C)C(=O)O)c(=O)[nH]/c2=N\c2ccc(Oc3ccc(O)nc3)cc2)cc1` [Compound I-1536], the IC50 stood at 24 nM.
Still for that read-out and setting: under `CCn1c(=O)[nH]/c(=N\c2ccc(Oc3cccc(/C=C/C(=O)OC)c3)cc2)n(Cc2ccc(C)cc2)c1=O` [Compound I-2327] stands 8 nM.
Consider `Cc1cc(Oc2ccc(/N=c3\[nH]c(=O)n(C[C@H](O)CO)c(=O)n3Cc3ccc(Cl)cc3)cc2)n(C)n1` [Compound I-2371], for which the IC50 worked out at 102 nM.
Same read-out and setting: with `COC(=O)[C@@H](C)Cn1c(=O)[nH]/c(=N\c2ccc(CC(C)(C)F)c(Cl)c2)n(Cc2ccc(C)cc2)c1=O` [Compound I-1528] the figure was 32 nM; with `CNC(=O)CCn1c(=O)[nH]/c(=N\c2ccc(Oc3cccc(F)n3)cc2)n(Cc2ccc(Cl)cc2)c1=O` [Compound I-2655], 5 nM; with `CCCOc1ccc(/N=c2\[nH]c(=O)n(C[C@H](C)C(=O)O)c(=O)n2Cc2ccc(C)cc2)cc1` [Compound I-0828], 25 nM.
Still for that read-out and setting: under `CCn1c(=O)[nH]/c(=N\c2ccc(Sc3nc[nH]n3)cc2)n(Cc2ccc(Cl)cc2)c1=O` [Compound I-2598] stands 341 nM; under `CCn1c(=O)[nH]/c(=N\c2ccc(Oc3cccc(C(N)=O)n3)cc2)n(Cc2ccc(F)cc2)c1=O` [Compound I-2495], 21 nM.
Still for that read-out and setting: under `Cc1cc(/N=c2\[nH]c(=O)n(C[C@H](C)C(=O)O)c(=O)n2Cc2ccc(Cl)cc2)ccc1OCC(C)C` [Compound I-0835] stands 78 nM.
For the compound `CCOC(=O)C(F)(F)Cn1c(=O)[nH]/c(=N\c2ccc(OC(C)C)c(C)c2)n(Cc2ccc(C)cc2)c1=O` [Compound I-0855], the IC50 came out at 10 nM.
Regarding `O=c1[nH]/c(=N\c2ccc(Oc3ccnc(Cl)c3)cc2)n(Cc2ccc(Cl)cc2)c(=O)n1CC(CO)CO` [Compound I-2704], the IC50 was 4 nM.
